Where two headings read alike, the source gives them in different places.
Legend:
[1] = system: carageenin-induced rat paw inflammation; experiment: Anti-inflammatory activity: carrageenin-induced rat paw inflammation (edema), oral; assay type: in vivo, rats of Wistar-King strain; details: 3 hours after carrageenin, read-out: Anti-inflammatory Activity (carageenin-induced rat paw inflammation) Percent Inhibition of Swelling; for inhibition in vivo at 25 mg/kg: oral dose 25 mg/kg; for inhibition in vivo at 50 mg/kg: oral dose 50 mg/kg; for inhibition in vivo at 100 mg/kg: oral dose 100 mg/kg; for inhibition in vivo at 12.5 mg/kg: oral dose 12.5 mg/kg
Experimental: The anti-inflammatory activity of the 2-aminomethyl-5-phenyloxazoles was compared with that of aminopyrine.
Eight male rats of Wistar-King strain, each weighing between 120 to 150 grams, were used for each group. The hind paw of the rats was injected subcutaneously with 0.1 ml of 1% carrageenin suspension. The volume of the paw was measured plethysmographically 3 hours after the injection, and the difference in volume between the edematous foot and the normal foot was regarded as the degree of edema. Each percent inhibition was calculated in comparison with the control. The test compounds were administered orally 30 minutes before the injection of carrageenin.

[2] = system: AcOH induced Writhing in Mice; experiment: Analgesic activity: (A) writhing syndrome induced by acetic acid; assay type: in vivo, mice of ddY strain; details: Mus musculus, sc, Litchfield-Wilcoxon's method
Experimental: (A) Writhing syndrome induced by acetic acid Six male mice of ddY strain, each weighing between 25 to 30 grams were used in the present experiment. […] Thereafter, the total number of writhings of a group was recorded for 20 minutes, and percent inhibition was calculated in comparison with the control. ED50 was calculated according to Litchfield-Wilcoxon's method.

[3] = system: squeak response of mouse to electrical stimulation of the tail root; experiment: Analgesic activity: (B) electrical stimulation method; assay type: in vivo, mice of ddY strain; details: ip, mice, Weil's method
Experimental: The analgesic activity of the 2-aminomethyl-5-phenyloxazoles was compared with that of aminopyrine.
(B) Electrical stimulation method
Five male mice of ddY strain, each weighing between 25 to 30 grams were used for each group.
Bipolar electrode was placed on the tail root of mouse. The mouse was stimulated with a square wave (5 m sec, 1 Hz), and the minimum voltage of squeak response was measured at 5, 10, 15, 30, 45 and 60 minutes after intraperitoneal administration of the test compound. Positive analgesic response was determined in cases where increase in the minimum voltage was observed. ED50 was calculated according to Weil's method. The acute toxicity values (LD50) of the […] were determined in the following manner: […]

[4] = Acute toxicity (LD50), mortality observed for 168 hours; details: mouse, in vivo, ip
Experimental: Bipolar electrode was placed on the tail root of mouse. The mouse was stimulated with a square wave (5 m sec, 1 Hz), and the minimum voltage of squeak response was measured at 5, 10, 15, 30, 45 and 60 minutes after intraperitoneal administration of the test compound. Positive analgesic response was determined in cases where increase in the minimum voltage was observed. ED50 was calculated according to Weil's method. The acute toxicity values (LD50) of the 2-aminoethyl-5-phenyloxazoles were determined in the following manner:
LD50 was calculated according to Weil's method.

[5] = mice, mortality for 168 hours, Weil's method

| Structure (SMILES) | inhibition in vivo at 25 mg/kg [1] | inhibition in vivo at 50 mg/kg [1] | inhibition in vivo at 100 mg/kg [1] | ED50 [2] | ED50 [3] | LD50 at 168 h ([4]; read-out: LD50 in Mice) | inhibition in vivo at 12.5 mg/kg [1] | LD50 at 168 h [4, 5] |
| --- | --- | --- | --- | --- | --- | --- | --- | --- |
| CNCc1ncc(-c2ccccc2)o1 | 5% | 40% | 48% | 10.1 mg/kg | 32 mg/kg | 238 mg/kg | – | – |
| CCNCc1ncc(-c2ccc(Cl)cc2)o1 | 43% | 65% | 60% | 1.9 mg/kg | 35 mg/kg | 283 mg/kg | 16% | – |
| CN(C)Cc1ncc(-c2ccc(Cl)cc2)o1 | – | – | 7% | 78 mg/kg | 77 mg/kg | 336 mg/kg | – | – |
| CNCc1ncc(-c2ccc(Cl)cc2)o1 | – | – | 17% | 22 mg/kg | 46 mg/kg | 141 mg/kg | – | – |
| NCc1ncc(-c2ccc(Cl)cc2)o1 | 25% | 29% | 65% | 6 mg/kg | 50 mg/kg | 476 mg/kg | – | – |
| CCNCc1ncc(-c2ccccc2)o1 | – | 23% | 47% | – | 21.4 mg/kg | 141 mg/kg | – | – |
| CNCc1ncc(-c2ccc(F)cc2)o1 | – | 38% | 55% | – | – | – | – | 141 mg/kg |
| NCc1ncc(-c2ccccc2Cl)o1 | 28% | 58% | 42% | – | – | – | – | 283 mg/kg |
| CNCc1ncc(-c2cccc(Cl)c2)o1 | – | – | 21% | – | – | – | – | 283 mg/kg |
| CNCc1ncc(-c2ccccc2Cl)o1 | – | – | 14% | – | – | – | – | 141 mg/kg |
| CCNCc1ncc(-c2ccccc2Cl)o1 | – | – | 14% | – | 54 mg/kg | 141 mg/kg | – | – |
| CCNCc1ncc(-c2ccc(Br)cc2)o1 | – | – | 22% | – | – | – | – | 168 mg/kg |
| CCNCc1ncc(-c2ccc(Cl)c(Cl)c2)o1 | 27% | 56% | 68% | – | – | – | – | 141 mg/kg |
| CCCNCc1ncc(-c2ccc(Cl)cc2)o1 | – | 24% | 38% | – | 47 mg/kg | 566 mg/kg | – | – |
| CCCNCc1ncc(-c2cccc(Cl)c2)o1 | – | 4% | 32% | – | – | – | – | 283 mg/kg |
| CCCNCc1ncc(-c2ccc(F)cc2)o1 | – | 45% | 53% | – | 54 mg/kg | 238 mg/kg | – | – |
| CCN(CC)Cc1ncc(-c2ccc(Cl)cc2)o1 | – | 24% | 44% | – | – | – | – | 238 mg/kg |
| OCCN1CCN(Cc2ncc(-c3ccc(Cl)c(Cl)c3)o2)CC1 | – | – | 14% | – | – | – | – | 141 mg/kg |
| OCCN1CCN(Cc2ncc(-c3ccccc3)o2)CC1 | – | – | 6% | – | – | – | – | 283 mg/kg |
| OCCN1CCN(Cc2ncc(-c3ccc(F)cc3)o2)CC1 | – | 8% | 54% | – | – | – | – | 336 mg/kg |
| OCCN1CCN(Cc2ncc(-c3ccc(Cl)cc3)o2)CC1 | 27% | 57% | 50% | 16 mg/kg | 30.8 mg/kg | 283 mg/kg | 6% | – |
| Cc1c(N(C)C)c(=O)n(-c2ccccc2)n1C [Aminopyrine, reference compound] | 23% | 47% | 65% | 37 mg/kg | 96 mg/kg | – | 9% | 270 mg/kg |

— US4123541A, “2-Aminomethyl-5-phenyloxazoles and the pharmaceutically acceptable salts thereof” (Mitsubishi Chemical Industries Limited, priority 1976, dated 1978)
